According to patent publication US20020183377A1 (priority 1999, published 2002):
“And” between values parts separate entries of the source, which are not always exact repeats. Equal values may be shown once.

Key:
alopecia in men = conditions: cited from earlier work
postmenopausal women = conditions: unpublished data; cited from earlier work
[1] = system: female patients having diffuse or androgenetic, non-epulotic alopecia; assay: Trichograms (anagenic, telogenic, dystrophic hair rates) in randomized placebo-controlled double-blind study; assay type: in vivo, human; conditions: for telogenic rate, frontal trichogram / anagenic rate, frontal trichogram / anagenic rate, occipital trichogram / telogenic rate, occipital trichogram: all patients
Description: The trial was carried out as a randomized, placebo-controlled double-blind study on 40 female patients having diffuse or androgenetic, non-epulotic alopecia, who, after clarification, declared themselves willing to participate in the investigation. […] The treatment period was 6 months. […] 40 women of 20 to 70 years of age with healthy skin and good general health and having androgenetic or diffuse alopecia were tested. Care was taken that none of the women were pregnant or lactating, there was no dermatological local therapy on the scalp and no epulotic alopecia was present. Furthermore, no hair-cosmetic measures were carried out during the study. […] For the investigation of the […] telogenic rates, trichograms were prepared. In this procedure, 5 days in each case after the last hair wash 30 to 50 hairs were obtained frontally approximately 2 cm from the forehead/hair boundary and laterally from the sagittal line in a standardized manner by epilation using a special […]. A 2nd epilation was taken occipitally 2 cm laterally of the protuberantia occipitalis. The trichograms were carried out before the beginning of the study, and after 3 and 6 months' treatment. The hair roots obtained were mounted on slides, analogously counted by means of a light microscope at 20-times magnification and the percentage ratios of the […], telogenic and dystrophic hairs were calculated. All the individual data from the trichogram investigations, the hair shaft measurements and the melatonin measurements were recorded in Microsoft Excel and mean values and standard deviations were calculated. The statistical analysis of the measured values at the various points in time in the two treatment groups was carried out by the SPSS statistics program.

[2] = system: female patients having diffuse or androgenetic, non-epulotic alopecia; assay: Hair shaft measurements (diameter, breaking force, breaking distance) in the same study; assay type: in vivo, human; conditions: for power of resistance of hair: frontal hair
Excerpt: The treatment period was 6 months. […] From the hair samples obtained for the trichogram, frontally and occipitally at least 10 hairs in each case were used for the hair shaft measurements. These samples were investigated before the beginning of the preparation application and after 3 and 6 months' treatment. For the measurement of the diameter and of the mechanical properties of the hair, 5 hairs from the frontal and occipital taking region of the trichograms were in each case used. For the measurement of the force which had to be used in order to break the hair, the hairs were first stretched, by means of a computer-controlled measuring and control unit at a constant force (Newton), to breaking point. In a manner analagous to the determination of the breaking force, it was possible to determine the stretching distance up to the breaking point by means of the measuring unit. The stretching distance was measured in mm.

[3] = system: female patients having diffuse or androgenetic, non-epulotic alopecia; assay: Patient questionnaire (success of therapy, side effects); assay type: in vivo, human
Description: Undesirable pharmaceutical side effects were determined by means of a patient questionnaire. At the end of the study, an additional termination questionnaire was filled in by the patients, in which they could express their views on the success of the therapy, on the chronological occurrence of side effects and on the administration form of the preparation.

[4] = Toxicity and side effects of melatonin in humans (oral, topical); assay type: in vivo, human; conditions: topical application in a nanocolloid preparation and alcoholic solutions, over 60 subjects
Excerpt: Although the mechanisms of the action of melatonin are still not comprehensively clarified in detail, melatonin appears to control the adaptation of the organism to environmental stimuli, in particular light and temperature.

hair follicle of goats = conditions: goats treated over 14 days, vs untreated goats; cited from earlier work
[5] = system: hair follicles of the cashmere goat; conditions: cited from earlier work
[6] = drug group n=14, starting value
[7] = patients treated with melatonin
[8] = drug group, end of 6-month study
[9] = drug group, under topical treatment

CC(C)(C)NC(=O)[C@H]1CC[C@H]2[C@@H]3CC[C@H]4NC(=O)C=C[C@]4(C)[C@H]3CC[C@]12C [finasteride]
cases with slight to marked improvement in the hair density (alopecia in men): 66%
cases with stopping of the hair loss (alopecia in men): 80%
efficacy compared with placebo (postmenopausal women): did not show any superior efficacy compared with placebo

COc1ccc2[nH]cc(CCNC(C)=O)c2c1 [melatonin, N-acetyl-5-methoxytryptamine]
anagenic rate, occipital trichogram, androgenetic alopecia ([1]; drug group n=6, after treatment): 87.8%
telogenic rate, occipital trichogram, androgenetic alopecia ([1]; drug group n=6, month 3): 18.3%
telogenic rate, occipital trichogram, androgenetic alopecia ([1]; drug group n=6, month 6, p≦0.035 vs starting result): 10.8%
anagenic rate, occipital trichogram, androgenetic alopecia ([1]; drug group n=6, starting value): 73.6%
telogenic rate, occipital trichogram, androgenetic alopecia ([1]; drug group n=6, starting value): 26.5%
telogenic rate, occipital trichogram, diffuse alopecia ([1]; drug group n=14, after treatment): 13.2%
anagenic rate, occipital trichogram, diffuse alopecia ([1]; drug group n=14, after treatment, p=0,02 vs placebo for increase): 83.7%
anagenic rate, occipital trichogram, diffuse alopecia [1, 6]: 77.4%
telogenic rate, occipital trichogram, diffuse alopecia [1, 6]: 21.6%
telogenic rate, frontal trichogram ([1]; drug group, after 3 months): 16.8%
telogenic rate, frontal trichogram ([1]; drug group, after 6 months): 15.9%
anagenic rate, frontal trichogram ([1]; drug group, after treatment with 0.1% melatonin spray (time not given; 6-month study)): 82.6%
anagenic rate, occipital trichogram ([1]; drug group, month 3): 78.8%
telogenic rate, occipital trichogram ([1]; drug group, month 3): 18.1%
anagenic rate, occipital trichogram ([1]; drug group, month 6, p≦0.021 vs starting result): 85%
telogenic rate, occipital trichogram ([1]; drug group, month 6, p≦0.048 vs month 3, p≦0.005 over 6 months): 12.5%
anagenic rate, occipital trichogram ([1]; drug group, starting value): 76.3%
telogenic rate, frontal trichogram ([1]; drug group, starting value): 18.9%
telogenic rate, occipital trichogram ([1]; drug group, starting value (month 1)): 23.03% and 23%
anagenic rate, frontal trichogram ([1]; drug group, starting value before therapy): 80.4%
differences in frontal anagenic and telogenic rates after 3 and 6 months compared with starting values ([1]; drug group, frontal): not significant
harmful actions of the preparation on the physiological hair root (dystrophic hair rate) ([1]; dystrophic hair always in the normal range): no harmful actions
patients with enlargement of the hair diameter, hair taken frontally ([2]; drug group, diagnosis androgenetic alopecia): 67%
power of resistance of hair ([2]; after 6 months' melatonin treatment): 0.61 N
power of resistance of hair ([2]; melatonin treatment, before treatment): 0.56 N
patients with improvements of occipital hair parameters, group having diffuse alopecia ([2]; occipital hair, diffuse alopecia, melatonin): 86%
patients with enlargement of the hair diameter, hair taken occipitally [2, 7]: 55%
patients with increase in the stretching force, hair taken occipitally [2, 7]: 70%
patients in whom the hair loss had stopped [3, 8]: 23%
patients in whom the hair loss had worsened [3, 8]: 8%
patients stating that the hair loss had improved [3, 8]: 69%
occurrence of tiredness compared with the placebo group ([3]; topical application to the scalp, 6 months): no increased occurrence of tiredness
local or systemic side effects [4]: no local or systemic side effects
accumulation in the melatonin serum level (6 months' topical treatment): did not occur
melatonin plasma level versus physiological night level (not exceeded) [9]: ≤ 250 pg/ml
melatonin plasma level, individual peak values [9]: 180 pg/mL
effect on hair follicles (histology of skin biopsies) (hair follicle of goats): induction of hair growth by changeover of the hair follicle from the telogenic phase to the proanagenic phase
melatonin concentration giving greater growth of the hair shafts than lower dose and control ([5]; 24 hour interval): ≥ 150 mg/mL
melatonin concentration with best growth rates and maximal total growth ([5]; after 120 hours): 300 ng/L
